Usually tissue uptake stands for the percentage of the injected dose found per gram of tissue.

The record followed here is patent US9353120B2, “Tetraaza macrocyclic compound, preparation method thereof and use thereof” (Kyungpook National University Industry-Academic Cooperation …, priority 2009, dated 2016).

Series [1] is described as follows: Electrochemical studies (cyclic voltammetry). The class given is physicochemical. The conditions noted are these: pH 7.0, scan rate 100 mV/s; for reversibility of redox reaction: cyclic voltammogram. The procedure: Cyclic voltammetry was conducted using Biologic model SP-150 with three-electrode configuration. The system consisted of a glassy carbon (diameter=3 mm) as a working electrode, an Ag/AgCl (sat. KCl) reference electrode, and a Pt wire counter electrode. Samples were run in 0.1 M aqueous […] adjusted to pH 7.0 with glacial […] at scan rate 100 mV/s. The solutions were deoxygenated for 30 minutes with argon (Ar) prior to use and kept under Ar atmosphere during measurement.

For series [2] the following is noted: in vivo.
Protocol: (§1) The animals were sacrificed at 4 hours and 24 hours post-injection. Organs and tissues of interest were removed and weighed.
Series [3] in a line: Rat biodistribution of 64Cu complexes.
Protocol: as §1
Series [4] in a line: Kinetic inertness via acid decomplexation (radio-TLC). It is filed as physicochemical. To be noted: 5 M and 10 M HCl, 90° C., radio-TLC at 6, 30 and 60 minutes. The procedure: Acid decomplexation of ^64Cu-PCB-TE2A was tested by adding 20 μL of ^64Cu-PCB-TE2A (1-2 mM, 52 μCi) to 100 μL of 5 M and 10 M HCl. The solution was heated at 90° C., and samples were analyzed by radio-TLC at 6, 30 and 60 minutes post-addition to 5 M and 10 M HCl (FIGS. 10-15).

The next series can be described thus: In vitro serum stability. The conditions noted are these: FBS, 37° C., radio-TLC up to 24 hours, then 50° C. for 1 hour. The class given is in vitro ADME, bovine. The procedure:
In vitro serum stability of ^64Cu-PCB-TE2A was tested by adding 20 μL of ^64Cu-PCB-TE2A (1-2 mM, 50 μCi) to 0.5 mL of fetal bovine serum (FBS). The solution was incubated at 37° C., and samples were analyzed by radio-TLC at 10, 30 and 60 minutes and at 2, 4, 10 and 24 hours post-addition to FBS (FIGS. 16-22). After 24 hours, the solution was incubated at 50° C. for 1 hour and once again samples were analyzed by radio-TLC (FIG. 23).

Another series is described as follows: in vivo. To be noted: female, nude, mouse, iv, 16 uCi, total radioactivity, mean uptake in the tumor.
The conditions of series [5]: buffer.
Protocol: Acid decomplexation studies were performed under pseudo first-order conditions with the same concentration of 3 mmol in 5 M HCl at 90° C. Changes in the absorption maxima with time were monitored using a Shimadzu UV-Vis spectrophotometer (UV-1650PC) in thermostated cells. The decreasing absorbance at the λmax of each spectrum (Cu-PCB-TE2A: 655 nm, Cu-PCB-DO2A: 596 nm) was used to monitor the progress of the decomplexation reaction (FIGS. 24-25). Half-lives were calculated from the slopes of linear ln(absorbance) vs. time plots. Each experiment was repeated two to three times and mean values of half-lives are reported.
The test system of a further series is U87MG tumors. The experiment in a line: MicroPET imaging. The class given is in vivo, female nude mice. The conditions noted are these: U87MG tumor bearing nude mouse, 1 hour post-injection, 231 μCi. The procedure:
PET scans and image analysis were performed using a microPET R4 rodent model scanner. […] At 1 hour after the injection, the mice were anesthetized with 1-2% isoflurane, positioned porne, and imaged. The images were reconstructed by the 2-dimensional ordered-subsets expectation maximum (OSEM) algorithm. No correction was necessary for attenuation or scatter correction.

The mark [6] stands for this setting: Kidney, 24 hours post-injection.
Where [7] appears, read: Muscle, 24 hours post-injection.
The mark [8] stands for this setting: Spleen, 24 hours post-injection.

Entries after “also recorded” stand apart in the source; their conditions may differ. Where two headings read alike, the source gives them in different places.

Take `O=C([O-])CN1CCN2CCCN(CC1)CCN(CC(=O)[O-])CC2.[Cu+2]` [Cu-PCB-DO2A]: in series [1], the “reversibility of redox reaction” value was “irreversible redox reaction” and the “Ered(V) vs Ag/AgCl (reduction potential)” value was −0.69 V. Besides, the “reversibility of redox reaction” value in series [1] (listed as CU-PCB-DO2A) is “irrev”.
For the molecule `O=C(O)CN1CCCN2CCCN(CCCN(CC(=O)O)CC2)CC1` [PCB-TE2A, 4,11-bis(carboxymethyl)-1,4,8,11-tetraazabicyclo[6.6.3]heptadecane], in series [2] (Sprague-Dawley, 24 h), the “Blood (rat biodistribution, cross-bridged and non-cross-bridged chelators)” value is listed as 0.012±0.004 % ID/organ; the “Kidney (rat biodistribution, cross-bridged and non-cross-bridged chelators)” value worked out at 0.064±0.009 % ID/organ; the “Liver (rat biodistribution, cross-bridged and non-cross-bridged chelators)” value came out at 0.142±0.004 % ID/organ.
As for `O=C([O-])CN1CCN2CCCN(CC1)CCN(CC(=O)[O-])CC2.[64Cu+2]` [^64Cu-PCB-DO2A], the “clearance from the blood, liver and kidneys” value in series [2] (rat) is recorded as “quickly cleared”.
Take `O=C([O-])CN1CCCN2CCCN(CCCN(CC(=O)[O-])CC2)CC1.[64Cu+2]` [^64Cu-PCB-TE2A]: the “% ID/g” value amounted to 0.013 ± 0.003 % ID/g in series [3] (Blood, 4 hours post-injection); 0.006 ± 0.001 % ID/g in series [3] (Blood, 24 hours post-injection); 0.030 ± 0.004 % ID/g in series [3] (Bone, 4 hours post-injection); 0.020 ± 0.005 % ID/g in series [3] (Bone, 24 hours post-injection); 0.060 ± 0.013 % ID/g in series [3] (Fat, 4 hours post-injection); 0.036 ± 0.005 % ID/g in series [3] (Fat, 24 hours post-injection). Also, the “% ID/g” value is 0.015 ± 0.001 % ID/g in series [3] (Heart, 4 hours post-injection); 0.007 ± 0.002 % ID/g in series [3] (Heart, 24 hours post-injection); 0.421 ± 0.019 % ID/g in series [3] (Kidney, 4 hours post-injection); 0.049 ± 0.007 % ID/g in series [3] (setting [6]); 0.213 ± 0.032 % ID/g in series [3] (Liver, 4 hours post-injection); 0.015 ± 0.001 % ID/g in series [3] (Liver, 24 hours post-injection). In addition, the “% ID/g” value turned out to be 0.022 ± 0.003 % ID/g in series [3] (Lungs, 4 hours post-injection); 0.013 ± 0.002 % ID/g in series [3] (Lungs, 24 hours post-injection); 0.033 ± 0.006 % ID/g in series [3] (Muscle, 4 hours post-injection); 0.018 ± 0.006 % ID/g in series [3] (setting [7]); 0.025 ± 0.006 % ID/g in series [3] (Spleen, 4 hours post-injection); 0.015 ± 0.009 % ID/g in series [3] (setting [8]). Moreover, the “% ID/g” value was determined as 0.046 ± 0.039 % ID/g in series [3] (Tail, 4 hours post-injection) and 0.039 ± 0.014 % ID/g in series [3] (Tail, 24 hours post-injection). For the same molecule, the “% ID/organ” value came out at 0.192 ± 0.048 % ID/organ in series [3] (Blood, 4 hours post-injection); 0.108 ± 0.029 % ID/organ in series [3] (Blood, 24 hours post-injection); 0.656 ± 0.110 % ID/organ in series [3] (Bone, 4 hours post-injection); 0.569 ± 0.181 % ID/organ in series [3] (Bone, 24 hours post-injection); 1.686 ± 0.322 % ID/organ in series [3] (Fat, 4 hours post-injection); 1.328 ± 0.311 % ID/organ in series [3] (Fat, 24 hours post-injection). Also, the “% ID/organ” value was determined as 0.011 ± 0.000 % ID/organ in series [3] (Heart, 4 hours post-injection); 0.006 ± 0.001 % ID/organ in series [3] (Heart, 24 hours post-injection); 0.794 ± 0.056 % ID/organ in series [3] (Kidney, 4 hours post-injection); 0.112 ± 0.011 % ID/organ in series [3] (setting [6]); 1.679 ± 0.241 % ID/organ in series [3] (Liver, 4 hours post-injection); 0.122 ± 0.013 % ID/organ in series [3] (Liver, 24 hours post-injection). Further, the “% ID/organ” value is 0.022 ± 0.003 % ID/organ in series [3] (Lungs, 4 hours post-injection); 0.015 ± 0.003 % ID/organ in series [3] (Lungs, 24 hours post-injection); 2.743 ± 0.525 % ID/organ in series [3] (Muscle, 4 hours post-injection); 1.987 ± 0.703 % ID/organ in series [3] (setting [7]); 0.013 ± 0.004 % ID/organ in series [3] (Spleen, 4 hours post-injection); 0.009 ± 0.004 % ID/organ in series [3] (setting [8]). Moreover, the “% ID/organ” value is listed as 0.252 ± 0.213 % ID/organ in series [3] (Tail, 4 hours post-injection) and 0.276 ± 0.115 % ID/organ in series [3] (Tail, 24 hours post-injection). The “clearance from the blood, liver and kidneys” value in series [3] (words) was “lowest amount of ^64Cu remaining in the blood and these tissues”. The “kinetic inertness towards acid decomplexation” value in series [4] is reported as “unusually high kinetic inertness towards acid decomplexation”. In addition, the “in vitro serum stability” value in “In vitro serum stability” is listed as “intact in the FBS for 24 hours without degradation”.
For the molecule `N=C(N)NCCC[C@@H]1NC(=O)[C@H](CCCCNC(=S)Nc2ccc(CC3CN4CCCN(CC(=O)O)CCN(CCCN(CC(=O)O)CC4)C3)cc2)NC(=O)[C@@H](Cc2ccc(O)cc2)NC(=O)[C@H](CC(=O)O)NC(=O)CNC1=O` (stereo partly shown) [metal not drawn], in the series “in vivo”, the tissue uptake at 1 h worked out at 4.76 %ID/g.
In the case of Cu-PCB-TE2A, the “Half-life for acid decomplexation, 5M HCl, 90° C.” value in series [5] is reported as 231(2)h. Besides, in series [1], the “reversibility of redox reaction” value was “quasi-reversible redox reaction; also recorded: qitasi-rev” and the “Ered(V) vs Ag/AgCl (reduction potential)” value is −0.66 V.
As for ^64Cu-PCB-TE2A-c(RGDyK), the “radiation uptake in the tumors (microPET)” value with U87MG tumors was “very high in the tumors as compared to other organs”.
